Reference: patent publication US11236059B2, “Targeted cytotoxic ratjadone derivatives and conjugates thereof” (HELMHOLTZ-ZENTRUM FUER INFEKTIONSFORSCHUNG GMBH, priority 2017, dated 2022)
Where two headings read alike, the source gives them in different places.

Legend:
[1] = tested on: A549 (DSMZ ACC 107) cells; assay: cells; type: cell-based; conditions: growth inhibition, 5 days of incubation, MTT assay; read-out: IC50 [nM] A-549
Method: (§1) 60 μL of serial dilutions of the test compound were given to 120 μL of suspended cells (50.000/mL) in wells of 96-well plates. After 5 days of incubation growth inhibition (IC50) was determined using an MTT assay.^[64]

[2] = tested on: MCF-7 (DSMZ ACC 115) cells; assay: cells; type: cell-based; conditions: growth inhibition, 5 days of incubation, MTT assay; read-out: IC50 [nM] MCF-7
Method: as §1

[3] = tested on: SKOV-3 (DSMZ ATCC HTB 77) cells; assay: cells; type: cell-based; conditions: growth inhibition, 5 days of incubation, MTT assay; read-out: IC50 [nM] SK-OV-3
Method: as §1

L-929 (DSMZ ACC 2) cells = assay: Cell proliferation assay (MTT), L-929; type: cell-based; conditions: growth inhibition, 5 days of incubation, MTT assay; read-out: IC50 [nM] L-929
Method: as §1

CRM1 = biological target: T1, CRM1 (Homo sapiens, UniProt O14980); assay: Monitoring export inhibitory activity (translocation biosensor, HeLaRevBio cells); type: cell-based
T1 construct: HeLa cells stably expressing a fluorescent translocation biosensor (HeLaRevBio); endogenous in cells; host or cells: HeLa (HeLaRevBio in A7; HeLa in A8)
T1 sequence (O14980 whole entry): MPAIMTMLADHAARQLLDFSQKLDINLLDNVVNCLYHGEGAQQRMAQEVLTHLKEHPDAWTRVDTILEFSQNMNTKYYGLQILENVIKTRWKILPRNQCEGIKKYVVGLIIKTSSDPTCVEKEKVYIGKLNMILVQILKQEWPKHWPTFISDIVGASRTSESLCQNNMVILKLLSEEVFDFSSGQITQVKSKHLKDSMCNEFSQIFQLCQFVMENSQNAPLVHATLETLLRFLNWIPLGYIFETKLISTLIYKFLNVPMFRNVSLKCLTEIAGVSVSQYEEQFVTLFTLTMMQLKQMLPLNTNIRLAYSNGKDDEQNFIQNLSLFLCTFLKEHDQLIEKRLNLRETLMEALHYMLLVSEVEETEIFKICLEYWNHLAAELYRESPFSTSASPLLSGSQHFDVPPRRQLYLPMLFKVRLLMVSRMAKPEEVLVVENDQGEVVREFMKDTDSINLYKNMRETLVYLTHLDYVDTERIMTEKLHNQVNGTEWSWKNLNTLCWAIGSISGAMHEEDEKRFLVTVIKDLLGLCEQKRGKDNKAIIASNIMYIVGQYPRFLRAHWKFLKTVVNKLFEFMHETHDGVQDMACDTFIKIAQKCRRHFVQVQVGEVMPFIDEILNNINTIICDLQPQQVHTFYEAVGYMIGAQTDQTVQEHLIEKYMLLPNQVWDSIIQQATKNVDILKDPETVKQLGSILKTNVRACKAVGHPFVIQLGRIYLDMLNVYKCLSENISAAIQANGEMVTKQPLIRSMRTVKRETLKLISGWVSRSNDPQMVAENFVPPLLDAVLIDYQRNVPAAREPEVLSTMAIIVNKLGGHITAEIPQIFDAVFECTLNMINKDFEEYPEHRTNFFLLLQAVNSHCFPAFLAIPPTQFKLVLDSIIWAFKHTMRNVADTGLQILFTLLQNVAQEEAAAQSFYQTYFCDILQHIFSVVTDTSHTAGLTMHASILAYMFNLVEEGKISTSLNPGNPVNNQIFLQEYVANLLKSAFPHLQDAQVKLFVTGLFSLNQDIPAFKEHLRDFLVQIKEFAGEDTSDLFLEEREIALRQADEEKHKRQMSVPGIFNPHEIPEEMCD
In short: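 HeLa cells stably expressing an NLS-GST-GFP-RevNES shuttle biosensor were treated with compound for 1 h, then fixed and Hoechst-stained. GFP intensity in nuclear and cytoplasmic regions was quantified by high-content imaging, and the inner-minus-outer mean intensity difference was the readout. IC50 came from four-parameter logistic fit; single-point testing used 125 nM final.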

[4] = tested on: KB 3.1 (DSMZ ACC 158) cells; conditions: read-out: IC50 [nM] KB-3.1; growth inhibition, 5 days of incubation, MTT assay
[5] = biological target: T2, nuclear export receptor Crm1 (Homo sapiens, UniProt O14980); assay: Pull-down with ratjadone-biotin, LC-MS proteomic target identification; type: binding; conditions: HeLa cells, 0.1 μg/ml, 5h; streptavidin sepharose; 79 proteins identified
T2 construct: HeLa cells stably expressing a fluorescent translocation biosensor (HeLaRevBio); endogenous in cells; host or cells: HeLa (HeLaRevBio in A7; HeLa in A8)
T2 sequence (O14980 whole entry): as above
Method: Binding of Ratjadone to the nuclear export receptor Crm1 was shown in a chemical pull down. HeLa cells were treated with ratjadone-biotin, ratjadone or both at 0.1 μg/ml final concentration for 5h. Cells were detached by scraping, washed twice in PBS and lysed in MPER-buffer (Thermo Fisher, Waltham, USA) supplemented with complete protease inhibitor (Roche, Mannheim, Germany). After 5 min incubation on ice the lysate was centrifuged (20 min, 13000 rpm, 4° C.) and the supernatant was incubated with streptavidin sepharose high performance (GE healthcare, Freiburg, Germany) overnight at 4° C. The next day beads were washed twice with PBS and resuspended in elution buffer (Roth) and heated to 95° C. for 10 min. 5% were tested on WesternBlot with a biotin-specific antibody (see FIG. 11). The eluate was given to the proteomics platform (J. Wissing) for identification of proteins.

Row | SMILES | IC50 [1] [nM] | IC50 [2] [nM] | IC50 [3] [nM] | IC50 (L-929 (DSMZ ACC 2) cells) [nM] | IC50 (CRM1; HeLa cells stably expressing translocation biosensor, 1h of incubation, read-out: IC50 [nM] CRM1 (nuclear export inhibition)) [nM] | IC50 [4] [nM] | IC50 (CRM1) [nM] | proteins identified in the pull-down eluate [5]
1 | C/C=C/[C@@H]1O[C@H]([C@H](O)/C=C/C=C(\C)C[C@@H](C)/C=C(C)\C=C\[C@H]2CC=CC(=O)O2)CC(=O)[C@@H]1C [19-Oxo-Ratjadone 9, (R)-6-((1E,3Z,5R,7E,9E,9E,11R)-11-hydroxy-3,5,7-trimethyl-11-((2S,5R,6S)-5-methyl-4-oxo-6-((E)-prop-1-en-1-yl)tetrahydro-2H-pyran-2-yl)undeca-1,3,7,9-tetraen-1-yl)-5,6-dihydro-2H-pyran-2-one] | 0.1 | 0.48 | 0.16 | 24.3 | 13.3 | 0.36 | – | –
2 | C/C=C/[C@@H]1O[C@H]([C@H](/C=C/C=C(\C)C[C@@H](C)/C=C(C)\C=C\[C@H]2CC=CC(=O)O2)NC(=O)OCCc2cn(CCOCCOCCOCCNC(=O)CCCC[C@@H]3SC[C@@H]4NC(=O)N[C@@H]43)nn2)C[C@@H](O)[C@@H]1C [Biotin-PEG3-16S-Aminoratjadone, 2-(1-(13-oxo-17-((3aS,4S,6aR)-2-oxohexahydro-1H-thieno[3,4-d]imidazol-4-yl)-3,6,9-trioxa-12-azaheptadecyl)-1H-1,2,3-triazol-4-yl)ethyl ((1S,2E,4E,7R,8Z,10E)-1-((2S,4R,5S,6S)-4-hydroxy-5-methyl-6-((E)-prop-1-en-1-yl)tetrahydro-2H-pyran-2-yl)-5,7,9-trimethyl-11-((R)-6-oxo-3,6-dihydro-2H-pyran-2-yl)undeca-2,4,8,10-tetraen-1-yl)carbamate] | – | – | – | – | – | – | 152 | CRM1 having the highest area
